Data as given in patent US20170273917A1, “NMDA RECEPTOR ANTAGONISTS FOR TREATING GAUCHER DISEASE” (Yeda Research and Development Co. Ltd., priority 2014, published 2017).

Columns and labels:
GBA1 = target: T1, GBA1 (Mus musculus, UniProt P17439); experiment: GBA1 activity assay in brain homogenates of treated mice; type: in vivo; conditions: mice treated for 10 days with CBE vs PBS; all strains tested; brains harvested P18
T1 construct: from tissue; host or cells: mouse brain (frozen half-brain homogenate) of inbred strains treated in vivo with PBS, CBE or CBE plus memantine
T1 sequence (P17439 20-515): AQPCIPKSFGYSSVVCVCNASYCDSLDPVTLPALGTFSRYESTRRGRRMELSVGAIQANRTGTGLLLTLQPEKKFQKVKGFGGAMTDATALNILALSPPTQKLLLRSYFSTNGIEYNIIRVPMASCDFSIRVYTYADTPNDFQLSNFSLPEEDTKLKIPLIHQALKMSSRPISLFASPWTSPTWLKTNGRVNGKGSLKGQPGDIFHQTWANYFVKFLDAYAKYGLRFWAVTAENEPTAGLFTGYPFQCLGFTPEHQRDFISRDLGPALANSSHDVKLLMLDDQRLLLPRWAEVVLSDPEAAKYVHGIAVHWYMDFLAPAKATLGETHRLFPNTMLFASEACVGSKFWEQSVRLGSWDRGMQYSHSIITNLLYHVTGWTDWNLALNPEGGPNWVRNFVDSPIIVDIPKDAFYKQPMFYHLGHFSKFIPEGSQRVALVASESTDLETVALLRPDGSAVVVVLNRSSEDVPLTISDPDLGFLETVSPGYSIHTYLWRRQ
Method: GBA1 activity assay—GBA1 activity was performed as previously described (Farfel-Becker et al. Hum Mol Genet. 2014; 23(4):843-54). Briefly, frozen half-brain samples were sonicated in Mcllvaine's buffer (0.1 M citric acid, pH 4.2, 0.2 M Na2HPO4, 29:21, vol:vol). Tissue homogenates containing 50 μg of protein were incubated at 37° C. with 8 μM C6-NBD-GlcCer (Avanti Polar Lipids, Alabaster, Ala., USA) in a final volume of 25 μl Mcllvaine's buffer for 30 minutes. Lipids were extracted and the lower phase separated by thin layer chromatography using chloroform:methanol:9.8 mM CaCl2 (60:35:8, vol:vol:vol) as the developing solvent. C6-NBD-ceramide was identified with an authentic standard using a Typhoon 9410 variable mode imager and bands were quantified by Image-QuantTL (GE Healthcare, Chalfont St Giles, UK).
To eliminate the possibility that the phenotypic differences observed in the different mouse strains were caused by differential CBE metabolism in the brain, GBA1 enzymatic activity in mice treated for 10 days with CBE or PBS (control) was measured. […] Overall, the remaining GBA1 activity was 5-10% of the controls (FIG. 3A). There was no correlation between GBA1 activity in the brain and life spans neither in the PBS(R^2=0.126, data not shown) nor CBE conditions (R^2=0.0581, FIG. 3B). In addition, no correlation was found between inhibition of GBA1 activity and life span when evaluated according to strains (R^2=0.0085, data not shown).

[1] = system: motor coordination of CBE-treated mice; experiment: Locomotor testing by the hanging wire test; type: in vivo, mouse; conditions: short living CBE-treated strains; weekly from P21 for 2 months
From the text: Locomotor testing—Locomotor coordination was weekly evaluated in the treated strains by the hanging wire test, a validated test for LSD mouse models (Alvarez et al. 2008). Briefly, the mouse was placed with forepaws at a center of a horizontal bar (3 mm diameter; 35 mm long).
To further characterize the effect of CBE treatment on the different strains, motor behavior was followed weekly using the hanging wire test, starting at postnatal day 21 for a period of 2 months. The hanging wire test evaluates coordination and locomotor function, wherein a high score means better coordination. […] Of note, strains PWD/PhJ and WSB/EiJ were excluded in the motor behavior analysis due to their wild behavior.

[2] = system: CD68-positive cells in cortical layer V; experiment: Immunohistochemistry of CD68-positive cells in cortical layer V of the brain; type: in vivo, mouse
Method: Immunohistochemistry—Mice were sacrificed and whole brains were fixed in 4% paraformaldehyde:PBS overnight at 4° C. Tissues were washed in PBS and sectioned with a microtome. Forty micrometer coronal sections were processed free floating in 2% BSA, 0.2% Triton X-100, PBS through all blocking, antibody incubation, and wash steps. Sections were incubated overnight at 4° C. with primary anti rat CD68 (AbD Serotec, Oxford, UK; 1:1000). Following washes, sections were incubated with secondary Cy2-conjugated donkey anti-rat antibody (1:200, Jackson). The presence of CD68-positive cells in cortical layer V of the brain was analyzed using an epifluorescent microscope (Zeiss).
To verify the results of Example 1, the presence of CD68-positive cells in the cortical layer V of the brain was analyzed in two exemplary strains, AKR/J (average mortality on day 24) and BTBR T^+ITPR3TF/J (100% mortality on day 199).

Grin2b = experiment: Cortical Grin2b mRNA levels by qPCR; type: in vivo, mouse; conditions: 10 days CBE vs PBS; short living (A/J, C57BL6/JolaHsd) and long living (NZW, FVB) strains
Method: RNA extraction and quantitative PCR Following treatment, mice were sacrificed and their brains removed, placed on a Young Mouse Brain Slicer Matrix (BSMYS001-1, Zivic instruments, Pittsburgh, Pa., USA) and cut into 1 mm coronal sections. The cerebral cortex was separated using a spatula and snap-frozen in liquid N2 and stored at −80° C. Total RNA was isolated using the RNeasy mini kit (Qiagen GmbH, Hilden, Germany) according to manufacturer's instructions. Quantitative polymerase chain reaction (Q-PCR) was performed using PerfeCTa SYBR Green FastMix (Quanta BioSciences, Gaithersburg, Md., USA) and an ABI Prism 7300 Sequence Detection System (Applied Biosystems, Foster City, Calif., USA). […] Fold-change in mRNA levels was calculated using the comparative cycle threshold method using TATA box binding protein (TBP) for normalization. P-values were calculated using a two-tailed, two-independent sample Student's t-test. […]
Based on the predictive studies described above, the involvement of Grin2b in the pathogenesis of neuropathic GD was evaluated. […] Since non-coding SNPs can regulate the expression of quantitative trait locus (QTL), the mRNA levels of Grin2b were determined by qPCR. […] The transcript levels was determined in 2 short living (A/J and C57BL6/JolaHsd) and 2 long living strains (NZW and FVB) 10 days following PBS or CBE treatment.

rat hippocampal neurons = rat hippocampal neurons treated with CBE; high concentrations of glutamate; in vitro; cited from earlier work

SMILES: O[C@H]1[C@H](O)[C@@H](O)[C@@H]2O[C@@H]2[C@@H]1O [CBE, Conduritol-β-epoxide]
- remaining cerebral GBA1 activity (GBA1): 5-10 % of the controls
- motor behavior (hanging wire test) [1]: poor motor behaviors starting at very early time points
- brain pathology (CD68-positive cells, cortical layer V) ([2]; AKR/J mice treated with CBE, sacrificed P22): overt brain pathology
- brain pathology (CD68-positive cells, cortical layer V) and mortality ([2]; BTBR T+ITPR3TF/J mice treated with CBE, sacrificed P208): less sensitive to CBE both in terms of mortality and brain pathology
- Grin2b expression levels (cortical mRNA, qPCR) (Grin2b): increased only in the short-living strains
- sensitivity of neurons to glutamate toxicity (rat hippocampal neurons): more sensitive to the toxic effects of high concentrations of glutamate
